The text below walks through data of ChEMBL document CHEMBL3739371, “Small molecules enhance functional O-mannosylation of Alpha-dystroglycan” (Bioorg Med Chem, 2015).

SMILES strings stand for the structures. Active and inactive are the calls of the source. The rule behind the calls is not given here.

The target in assay [1] is T1, Dystroglycan 1 (Homo sapiens) (UniProt Q14118).
T1 sequence (whole entry): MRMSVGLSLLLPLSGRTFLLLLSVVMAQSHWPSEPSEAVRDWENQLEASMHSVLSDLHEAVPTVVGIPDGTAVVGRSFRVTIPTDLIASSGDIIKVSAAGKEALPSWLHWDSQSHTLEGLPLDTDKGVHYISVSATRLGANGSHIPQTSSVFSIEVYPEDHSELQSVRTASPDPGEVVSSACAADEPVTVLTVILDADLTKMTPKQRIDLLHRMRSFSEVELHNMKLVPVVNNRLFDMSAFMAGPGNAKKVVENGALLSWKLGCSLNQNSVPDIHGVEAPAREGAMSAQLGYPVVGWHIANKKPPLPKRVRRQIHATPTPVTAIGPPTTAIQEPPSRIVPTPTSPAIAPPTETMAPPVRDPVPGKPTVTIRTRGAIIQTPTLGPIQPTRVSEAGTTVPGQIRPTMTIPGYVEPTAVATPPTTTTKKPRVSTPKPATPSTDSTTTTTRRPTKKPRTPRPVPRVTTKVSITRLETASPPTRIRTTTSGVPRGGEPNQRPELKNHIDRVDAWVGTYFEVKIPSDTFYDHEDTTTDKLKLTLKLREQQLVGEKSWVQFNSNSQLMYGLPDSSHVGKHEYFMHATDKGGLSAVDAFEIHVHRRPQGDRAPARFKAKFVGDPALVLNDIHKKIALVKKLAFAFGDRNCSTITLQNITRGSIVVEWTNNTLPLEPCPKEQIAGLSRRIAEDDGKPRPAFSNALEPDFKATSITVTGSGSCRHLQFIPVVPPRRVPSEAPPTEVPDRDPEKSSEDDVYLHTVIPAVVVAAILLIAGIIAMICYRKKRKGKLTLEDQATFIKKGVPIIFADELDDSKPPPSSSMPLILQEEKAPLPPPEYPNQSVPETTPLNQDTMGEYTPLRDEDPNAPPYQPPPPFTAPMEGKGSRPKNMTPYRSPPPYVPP
The assay can be described thus: Increase of functional O-mannosylation of alpha-dystroglycan in human myotubes expressing myogenin after 48 hrs by alpha-screen assay. Background: Bead proximity is the source of the signal in Alpha formats.

For assay [2], the target named is T2, Dystroglycan (Cricetulus griseus) (UniProt G3H8F4).
T2 sequence (whole entry): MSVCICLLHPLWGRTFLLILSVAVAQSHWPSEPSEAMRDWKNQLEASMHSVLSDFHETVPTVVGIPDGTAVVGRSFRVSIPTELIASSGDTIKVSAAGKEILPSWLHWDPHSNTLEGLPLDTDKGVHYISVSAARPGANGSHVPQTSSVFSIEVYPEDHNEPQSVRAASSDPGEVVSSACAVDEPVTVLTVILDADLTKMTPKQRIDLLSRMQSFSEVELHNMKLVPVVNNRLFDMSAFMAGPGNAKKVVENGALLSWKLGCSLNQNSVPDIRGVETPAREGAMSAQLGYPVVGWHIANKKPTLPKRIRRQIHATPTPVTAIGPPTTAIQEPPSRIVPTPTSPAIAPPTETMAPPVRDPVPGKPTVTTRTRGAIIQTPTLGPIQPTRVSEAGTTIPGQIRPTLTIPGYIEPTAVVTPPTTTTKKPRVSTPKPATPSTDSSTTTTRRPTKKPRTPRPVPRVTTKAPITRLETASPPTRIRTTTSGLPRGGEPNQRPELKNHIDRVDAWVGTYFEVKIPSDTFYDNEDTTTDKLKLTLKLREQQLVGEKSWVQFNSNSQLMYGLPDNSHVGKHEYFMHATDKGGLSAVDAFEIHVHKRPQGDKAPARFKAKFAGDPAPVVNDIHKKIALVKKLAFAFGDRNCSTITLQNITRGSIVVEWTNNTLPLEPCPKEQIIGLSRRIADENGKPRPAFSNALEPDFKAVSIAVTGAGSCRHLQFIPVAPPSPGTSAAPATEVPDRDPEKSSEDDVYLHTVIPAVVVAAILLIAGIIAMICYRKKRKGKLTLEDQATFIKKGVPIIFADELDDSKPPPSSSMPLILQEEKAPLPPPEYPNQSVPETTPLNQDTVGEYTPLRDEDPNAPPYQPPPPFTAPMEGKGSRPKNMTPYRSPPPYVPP
Nature of the assay: Increase of functional O-mannosylation of alpha-dystroglycan in Chinese hamster pgsl-208 cells after 24 hrs by fluorescence assay.

Assay [3] concerns the target T3, Dystroglycan 1 (Mus musculus) (UniProt Q62165).
T3 sequence (whole entry): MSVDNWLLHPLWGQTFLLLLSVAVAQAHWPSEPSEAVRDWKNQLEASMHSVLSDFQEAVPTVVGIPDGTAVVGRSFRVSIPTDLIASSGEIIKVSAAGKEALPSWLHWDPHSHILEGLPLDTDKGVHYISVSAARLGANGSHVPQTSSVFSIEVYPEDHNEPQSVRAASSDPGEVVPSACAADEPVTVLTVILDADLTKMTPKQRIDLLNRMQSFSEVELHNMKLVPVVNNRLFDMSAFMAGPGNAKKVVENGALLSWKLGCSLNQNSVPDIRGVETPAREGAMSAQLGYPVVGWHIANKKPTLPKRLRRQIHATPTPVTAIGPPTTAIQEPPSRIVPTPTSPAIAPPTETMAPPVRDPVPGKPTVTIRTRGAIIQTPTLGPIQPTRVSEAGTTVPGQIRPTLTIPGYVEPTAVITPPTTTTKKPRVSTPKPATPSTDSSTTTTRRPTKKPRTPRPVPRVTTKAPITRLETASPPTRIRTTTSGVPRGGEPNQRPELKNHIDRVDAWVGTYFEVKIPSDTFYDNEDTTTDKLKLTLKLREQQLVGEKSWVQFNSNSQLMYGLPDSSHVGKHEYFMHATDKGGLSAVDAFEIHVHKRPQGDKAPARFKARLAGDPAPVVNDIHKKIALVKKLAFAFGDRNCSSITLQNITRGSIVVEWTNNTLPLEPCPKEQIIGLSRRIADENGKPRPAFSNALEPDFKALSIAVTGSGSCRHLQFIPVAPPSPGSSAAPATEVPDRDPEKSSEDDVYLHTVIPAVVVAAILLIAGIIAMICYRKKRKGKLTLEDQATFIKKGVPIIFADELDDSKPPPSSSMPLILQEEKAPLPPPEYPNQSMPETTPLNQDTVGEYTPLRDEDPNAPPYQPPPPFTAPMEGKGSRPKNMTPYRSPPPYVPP
The assay can be described thus: Increase of functional O-mannosylation of alpha-dystroglycan in mouse C2C12 cells after 48 hrs by immunofluorescence assay. The class given is cell-based.

Assay [4] concerns the target T2, Dystroglycan (Cricetulus griseus). The assay can be described thus: Increase of functional O-mannosylation of alpha-dystroglycan in Chinese hamster Lec15.2 cells after 24 hrs by fluorescence assay.
Assay [5] addresses T1, Dystroglycan 1 (Homo sapiens). Nature of the assay: Increase of functional O-mannosylation of alpha-dystroglycan in human myotubes after 48 hrs by immunofluorescence assay.
The target in assay [6] is T2, Dystroglycan (Cricetulus griseus). Nature of the assay: Increase of functional O-mannosylation of alpha-dystroglycan in Chinese hamster B421 cells after 24 hrs by fluorescence assay relative to control. The class given is cell-based.
The target of assay [7] is T1, Dystroglycan 1 (Homo sapiens). Nature of the assay: Increase of functional O-mannosylation of alpha-dystroglycan in FKRP-deficient human myotubes after 24 hrs by fluorescence assay.
Assay [8] shares this target. The assay can be described thus: Increase of functional O-mannosylation of alpha-dystroglycan in human myoblasts after 48 hrs by immunofluorescence assay.
For assay [9], the target named is T3, Dystroglycan 1 (Mus musculus). The assay can be described thus: Increase of functional O-mannosylation of alpha-dystroglycan in mouse C2C12 cells expressing myogenin after 48 hrs by immunofluorescence assay. The class given is cell-based.
The target in assay [10] is T2, Dystroglycan (Cricetulus griseus). The assay can be described thus: Increase of functional O-mannosylation of alpha-dystroglycan in Chinese hamster pro5 cells expressing LARGE after 48 hrs by alpha-screen assay. The class given is cell-based.
The target of assay [11] is T3, Dystroglycan 1 (Mus musculus). Nature of the assay: Increase of functional O-mannosylation of alpha-dystroglycan in mouse C2C12 cells expressing LARGE after 48 hrs by alpha-screen assay. The format is cell-based.

With `CCC(c1nnnn1Cc1cccs1)N1CCN(c2nc3cc(N)cc(F)c3s2)CC1` (stereo unspecified), the outcome in assay [1], in assay [3], in assay [7] and in assay [9] was Active. Also, the result in assay [2], in [4], in assay [5] and in [8] was inactive. Besides, the fold change (FC) in assay [6] was below 6; in assay [11] it was 8. Also, the EC1.5 in assay [10] was 1.2 µM.
